# Test results published in patent US20080090898A1, “Boosting immunity” (Mars, Incorporated, priority 2006, published 2008).
# Assays:
# CD4 T cells = assay: Cytokine production of isolated CD4 T cells activated with anti CD3; format: cell-based, human
# Description: (§1) CD4+ and CD8+ cells were isolated by positive selection. Briefly, 10×10^7 PBMC cells in 90 μl were incubated with 10 μl of either anti-CD4+ or CD8+ magnetic reagent and incubated at 4° C. for a half hour. The cells were then separated by magnetic cell sorting using a Miltenyi Biotec system, were counted and diluted to a concentration of 2×10^6 cells/ml with BioWhittaker X Vivo. Autologous plasma from the subject was added to a concentration of 1% by volume. A 96 well plate was treated with antihuman-CD3 in PBS (BD Biosciences) at a concentration of 0.5 μg/ml for 4 hours. After the 4 hour incubation, the plate was washed 4 times with PBS. Purified CD4+ or CD8+ cells were added to each well along with various concentrations of the individual test compounds or controls. The cultures were then incubated at 37° C. for 1 day and supernatants were harvested and stored at −80° C. Cytokine profiles were determined using a BD Cytometric Bead Array Human Inflammation KIT (BD Biosciences, San Diego, Calif.). Briefly, 50 μl of culture supernates and standards were added to 100 μl of capture beads and detection reagent. Tubes were incubated for 3 hours at room temperature, washed with 1 ml of wash buffer and centrifuged prior to collection of the supernate. Wash buffer (300 μl) was added and samples immediately analyzed on the flow cytometer after vortexing. Known positive and negative samples and including a standard curve were included with each assay and all samples analyzed in triplicate. In addition, cultured cells (1×10^6) were washed in PBS with 0.1% bovine serum albumin (PBS/BSA), resuspended in 100 μl PBS/BSA, and incubated with anti-human CD3, CD19, CD69 and CD83 antibody for 1 hour at 4° C. Cells were resuspended in 1.0 ml PBS/BSA and analyzed on the flow cytometer.
# CD8 T cells = assay: Cytokine production of isolated CD8 T cells activated with anti CD3; format: cell-based, human
# Description: as §1, with “Briefly, 50 μl of culture supernates and standards were added to 100 μl of capture beads and detection reagent. Tubes were incubated for 3 hours at room temperature, washed with 1 ml of wash buffer and centrifuged prior to collection of the supernate.” left out, “In addition, cultured cells (1×10^6) were washed in PBS with 0.1% bovine serum albumin (PBS/BSA), resuspended in 100 μl PBS/BSA, and incubated with anti-human CD3, CD19, CD69 and CD83 antibody for 1 hour at 4° C.” left out
smiles,measurement,setting,value
COc1cc([C@H]2Oc3cc(O)cc(O)c3C[C@H]2O)ccc1O [3′-O-methyl-(−)-epicatechin],IFN-γ levels over media control and (−)-epicatechin treated cells,CD4 T cells,significantly higher levels
same,IL-10 levels over media control and (−)-epicatechin treated cells,CD4 T cells,significantly higher levels
same,TNF-α levels over media control and (−)-epicatechin treated cells,CD4 T cells,significantly higher levels
same,IFN-γ amounts over the media controls,CD8 T cells,significantly higher amounts
